Measured values published in patent publication US20240285580A1, “COMPOSITIONS AND METHODS FOR EXTENDED RELEASE CROMAKALIM THERAPY” (Qlaris Bio, Inc., priority 2021, published 2024).
Counter-ions that a name gives are not always drawn.

Assays:
[1] = in vivo; cited from earlier work
[2] = trials terminated; most likely due to poor bioavailability; cited from earlier work
[3] = cited from earlier work
[4] = test system: isolated rat mesenteric lymph vessels; conditions: cited from earlier work; for rhythmic contractions of isolated rat mesenteric lymph vessels: exposure to KATP channel openers
KATP channels = conditions: membrane patches from rabbit mesenteric arterial smooth muscle cells, in the presence of ATP; cited from earlier work
CD31 and VE-Cadherin = experiment: Expression of biomarker proteins for hyperemia and vessel integrity; conditions: compared to Y-27632, a Rho kinase inhibitor
Description: Furthermore, the effect of levcromakalim on selected biomarkers for hyperemia and perturbations to vessel integrity has been established.

impact on expression of measured proteins indicative of tissue and vessel integrity (CD31 and VE-Cadherin)	Structure (SMILES)	effect on blood pressure [1]	outcome of human clinical trials [2]	solubility in water [3]	rhythmic contractions of isolated rat mesenteric lymph vessels [4]	contractions of the vessels at increasing concentrations ([4]; increasing concentrations, flow impaired by attenuating frequency and amplitude)	increase of open-state probability (Popen) of single KATP channels (KATP channels)
–	CC1(C)Oc2ccc(C#N)cc2C(N2CCCC2=O)C1O (stereo not shown) [Cromakalim, cromakalim]	lower blood pressure	lack of activity	substantially insoluble in water	progressively impaired	ultimately abolished the contractions	more than 9 fold
no significant impact	CC1(C)Oc2ccc(C#N)cc2[C@@H](N2CCCC2=O)[C@@H]1O [Levcromakalim, levcromakalim]	–	–	–	–	–	–
–	CC1=NS(=O)(=O)c2cc(Cl)ccc2N1 [diazoxide]	lower blood pressure	–	–	progressively impaired	–	–
–	Nc1cc(N2CCCCC2)nc(N)[n+]1OS(=O)(=O)[O-] [minoxidil sulfate]	–	–	–	progressively impaired	–	–
